Experimental data from ChEMBL document CHEMBL1201862, “PubChem BioAssay data set” (2004).
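Five concentrations, 48 hours, 96-well plates. Abbreviation: GI50, concentration required for 50% inhibition of growth.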 Calls of active or inactive are those of the source. No stated cut-off is given here; in the data, active = GI50 up to about 1.1 µM and inactive = higher.

How the values were obtained:
Experiment in all cases: NCI tumour cell line growth inhibition, 48 h
DLD-1 = test system: DLD-1
DMS-114 = test system: DMS-114
DMS-273 = test system: DMS-273
KM-20L2 = test system: KM-20L2
M19-MEL = test system: M19-MEL
RXF 631 = test system: RXF 631
SNB-78 = test system: SNB-78
HOP-18 = test system: HOP-18
XF498 = test system: XF498

Measured: GI50

C[n+]1cc(C(O)c2ccc3c(c2)OCO3)c2ccccc2c1 (configuration not stated)
inactive: DLD-1 31.8 µM | DMS-114 21.9 µM | DMS-273 31.2 µM | KM-20L2 45.5 µM | M19-MEL 40.6 µM | RXF 631 40.8 µM | SNB-78 28.6 µM

CC(=O)OCC(OC(C)=O)C(OC(C)=O)C(OC(C)=O)C(=O)CNn1c(-c2ccccc2Cl)nc2ccccc2c1=O (configuration not stated)
inactive: DMS-114 > 100 µM | DMS-273 > 100 µM | KM-20L2 > 100 µM | M19-MEL > 100 µM | SNB-78 > 100 µM

CCN(CC)CCNC(=O)c1nn(-c2ccc(Cl)cc2)c2c1CCc1cc(OC)ccc1-2
inactive: DLD-1 3.54 µM | DMS-114 2.67 µM | DMS-273 2.62 µM | HOP-18 15.2 µM | KM-20L2 1.64 µM | M19-MEL 2.7 µM | RXF 631 1.65 µM | SNB-78 7.67 µM | XF498 5.14 µM

Nc1ncnc2c1ncn2C1CC(O)C(CO)O1 (configuration not stated)
inactive: DLD-1 > 100 µM | DMS-114 > 100 µM | DMS-273 > 100 µM | KM-20L2 > 100 µM | M19-MEL > 100 µM | SNB-78 > 100 µM

Cc1cccc2[s+]snc12
inactive: DLD-1 26.7 µM | DMS-114 > 58.5 µM | DMS-273 > 100 µM | HOP-18 > 100 µM | KM-20L2 > 100 µM | M19-MEL > 60.3 µM | RXF 631 19.7 µM | SNB-78 > 100 µM | XF498 > 100 µM

CC(=O)CC(=O)OC1CC(C)CCC1C(C)C (configuration not stated)
inactive: DLD-1 24.7 µM | DMS-114 37.2 µM | DMS-273 41.9 µM | M19-MEL 34.6 µM | RXF 631 > 100 µM | SNB-78 > 100 µM | XF498 > 100 µM

Cc1nc2c(n1CCO)C(=O)c1ccccc1C2=O
inactive: DLD-1 38.2 µM | DMS-273 20 µM | KM-20L2 33.3 µM | M19-MEL 2.57 µM | SNB-78 46.5 µM | XF498 33 µM

CC(=O)O[C@H]1CCC2[C@@H]3CCC4Nc5[nH]ncc5C[C@]4(C)C3CC[C@@]21C (some centres not stated)
inactive: DMS-114 35.8 µM | DMS-273 50.7 µM | HOP-18 > 100 µM | KM-20L2 28.1 µM | M19-MEL 32.7 µM | RXF 631 > 100 µM | XF498 26.2 µM

COc1ccc(/C=C2\CCC(Cc3ccccc3)(CN(C)C)C2=O)cc1 (configuration not stated)
inactive: DLD-1 26.4 µM | DMS-114 18.2 µM | DMS-273 15.2 µM | HOP-18 > 100 µM | KM-20L2 23.4 µM | M19-MEL 28.4 µM | SNB-78 35.5 µM

CNC(=O)NCCCCC(NC(C)=O)C(=O)NCc1ccccc1 (configuration not stated)
inactive: DLD-1 > 100 µM | DMS-114 > 100 µM | DMS-273 > 100 µM | KM-20L2 > 100 µM | M19-MEL > 100 µM | RXF 631 > 100 µM | SNB-78 > 100 µM | XF498 > 100 µM

CC1=C2[C@@H](c3ccccc3)C3C=CC2(c2ccccc23)N(C(=O)Nc2cccc3ccccc23)C1=O (some centres not stated)
inactive: DMS-114 > 100 µM | DMS-273 > 100 µM | HOP-18 > 100 µM | KM-20L2 > 100 µM | SNB-78 > 100 µM | XF498 > 100 µM

O=C(CC1(O)C(=O)Nc2c(Cl)cc(Cl)cc21)c1ccc(Br)cc1 (configuration not stated)
inactive: DLD-1 13.2 µM | DMS-114 20.6 µM | DMS-273 13.5 µM | HOP-18 15.7 µM | KM-20L2 16.8 µM | M19-MEL 7.76 µM | RXF 631 12.4 µM | SNB-78 19.1 µM

COc1ccc(CN2C(=O)[C@@H]3Cc4c(OC)c(C)c(OC)c(OC)c4[C@H](/C2=C\c2cc(OC)c(OC)c(C)c2OC)N3C(=O)OC(C)C)cc1
inactive: DLD-1 69.3 µM | DMS-114 7.38 µM | DMS-273 19.3 µM | HOP-18 > 100 µM | KM-20L2 > 100 µM | M19-MEL 42.7 µM | RXF 631 > 100 µM
